Measured values from patent US4550159A, “Anthracycline compounds” (Microbial Chemistry Research Foundation, priority 1982, dated 1985).
In brackets after ≈: the same amount, converted by molar mass.

Experiments:
L1210 leukemia cells = experiment: Antitumor activity, increase of life span, L1210 leukemia cells in CDF1 mice; format: in vivo; details: intraperitoneal, 10 days
Method: To CDF1 mice were intraperitoneally transplanted 1×10^5 L1210 leukemia cells/mouse as a suspension. After the transplantation, each 0.25 ml of a solution containing the test compound was intraperitoneally injected for 10 days, beginning on the day of transplantation. […] The increase of life span (%) compared with the control group consisting of mice administered with physiological saline solution instead of the test compound was calculated from the following equation: [formula]

L1210 cells [1] = experiment: Cytotoxicity, RNA synthesis in L1210 cells; format: cell-based; details: Mus musculus, read-out: ID50, RNA synthesis
Excerpt: (§1) The results are shown below.

L1210 cells [2] = experiment: Cytotoxicity, growth of L1210 cells; format: cell-based; details: Mus musculus, read-out: ID50, growth
Excerpt: as §1

L1210 cells [3] = experiment: Cytotoxicity, protein synthesis in L1210 cells; format: cell-based; details: Mus musculus; for IC50: read-out: ID50, protein synthesis
Excerpt: as §1

Solubility = format: physicochemical
L1210 cells [4] = experiment: Cytotoxicity, DNA synthesis in L1210 cells; format: cell-based; details: Mus musculus, read-out: ID50, DNA synthesis
Excerpt: as §1

Sal. typhi T-63 = experiment: Antimicrobial activity, MIC by agar dilution method; format: cell-based; details: Salmonella enterica; Sal. typhi T-63, agar dilution method
Excerpt: (§2) The antimicrobial activity of ditrisarubicin according to the present invention was examined. It is expressed as minimum inhibitory concentration (MIC) determined by the agar dilution method.

B. subtilis PCI 219 = experiment: as above; format: cell-based; details: Bacillus subtilis, PCI219; B. subtilis PCI 219, agar dilution method
Excerpt: as §2

S. aureus MS9610 = experiment: as above; format: cell-based; details: Staphylococcus aureus
Excerpt: as §2

S. aureus 209 P = experiment: as above; format: cell-based; details: Staphylococcus aureus
Excerpt: as §2

Coryn. bovis 1810 = experiment: as above; format: cell-based; details: Corynebacterium bovis; Coryn. bovis 1810, agar dilution method
Excerpt: as §2

Pseu. aeruginosa A3 = experiment: as above; format: cell-based; details: Pseudomonas aeruginosa
Excerpt: as §2

Serr. marcessens = experiment: as above; format: cell-based
Excerpt: as §2

Prot. vulgaris OX19 = experiment: as above; format: cell-based; details: Proteus vulgaris
Excerpt: as §2

[5] = test system: M. lysodeikticus IFO 3333; experiment: as above; format: cell-based; details: Micrococcus luteus, IFO3333; M. lysodeikticus IFO 3333, agar dilution method
Excerpt: as §2

E. coli NIHJ = experiment: as above; format: cell-based; details: Escherichia coli
Excerpt: as §2

S. aureus Smith = experiment: as above; format: cell-based; details: Staphylococcus aureus
Excerpt: as §2

K. pnuemoniae PCI 602 = experiment: as above; format: cell-based; details: K. pnuemoniae PCI 602, agar dilution method
Excerpt: as §2

B. cereus ATCC 10702 = experiment: as above; format: cell-based; details: Bacillus cereus, ATCC10702; B. cereus ATCC 10702, agar dilution method
Excerpt: as §2

S. aureus MS8710 = experiment: as above; format: cell-based; details: Staphylococcus aureus
Excerpt: as §2

| SMILES | Increase of life span (L1210 leukemia cells; 0.016 mg/kg/day) [%] | Increase of life span (L1210 leukemia cells; 0.031 mg/kg/day) [%] | Increase of life span (L1210 leukemia cells; 0.063 mg/kg/day) [%] | Increase of life span (L1210 leukemia cells; 0.125 mg/kg/day) [%] | Increase of life span (L1210 leukemia cells; 0.25 mg/kg/day) [%] | IC50 (L1210 cells [1]) [µg/mL] | IC50 (L1210 cells [2]) [µg/mL] | Solubility in methanol, acetone, ethyl acetate, chloroform, acetonitrile and DMSO (Solubility) | Solubility in water, n-hexane and petroleum ether (Solubility) | IC50 (L1210 cells [4]) [µg/mL] | MIC (Sal. typhi T-63) [µg/mL] | MIC (B. subtilis PCI 219) [µg/mL] | MIC (S. aureus MS9610) [µg/mL] | MIC (S. aureus 209 P) [µg/mL] | MIC (Coryn. bovis 1810) [µg/mL] | MIC (Pseu. aeruginosa A3) [µg/mL] | MIC (Serr. marcessens) [µg/mL] | MIC (Prot. vulgaris OX19) [µg/mL] | MIC [5] [µg/mL] | MIC (E. coli NIHJ) [µg/mL] | other results |
| --- | --- | --- | --- | --- | --- | --- | --- | --- | --- | --- | --- | --- | --- | --- | --- | --- | --- | --- | --- | --- | --- |
| CCC1(O)CC(OC2CC(N(C)C)C(OC3CC4OC5CC(=O)C(C)OC5OC4C(C)O3)C(C)O2)c2c(O)c3c(c(O)c2C1OC1CC(N(C)C)C(OC2CC(O)C(OC4CCC(=O)C(C)O4)C(C)O2)C(C)O1)C(=O)c1cccc(O)c1C3=O (stereo not drawn) [Ditrisarubicin A] | 136 | 148 | 148 | 119 | 91 | 0.023 (≈ 0.0194 µM) | 0.0005 (≈ 0.000423 µM) | soluble | sparingly soluble | 0.31 (≈ 0.262 µM) | 50 (≈ 42.3 µM) | < 0.2 | 0.39 (≈ 0.33 µM) | < 0.2 | 0.78 (≈ 0.659 µM) | 12.5 (≈ 10.6 µM) | 50 (≈ 42.3 µM) | 50 (≈ 42.3 µM) | < 0.2 | 50 (≈ 42.3 µM) | IC50 (L1210 cells [3]): 8.5 µg/mL (≈ 7.18 µM); MIC (S. aureus Smith): 0.39 µg/mL (≈ 0.33 µM); MIC (K. pnuemoniae PCI 602): 50 µg/mL (≈ 42.3 µM); MIC (B. cereus ATCC 10702): 0.39 µg/mL (≈ 0.33 µM); MIC (S. aureus MS8710): < 0.2 µg/mL |
| CCC1(O)CC(OC2CC(N(C)C)C(OC3CC4OC5CC(=O)C(C)OC5OC4C(C)O3)C(C)O2)c2c(O)c3c(c(O)c2C1OC1CC(N(C)C)C(OC2CC4OC5CC(=O)C(C)OC5OC4C(C)O2)C(C)O1)C(=O)c1cccc(O)c1C3=O (stereo not drawn) [Ditrisarubicin B] | 114 | 136 | 148 | 159 | 108 | 0.029 (≈ 0.0245 µM) | 0.0011 (≈ 0.000931 µM) | soluble | sparingly soluble | 0.29 (≈ 0.245 µM) | > 50 | 0.39 (≈ 0.33 µM) | 0.39 (≈ 0.33 µM) | < 0.2 | < 0.2 | 25 (≈ 21.2 µM) | 50 (≈ 42.3 µM) | 50 (≈ 42.3 µM) | < 0.2 | > 50 | inhibition at 10 µg/mL (L1210 cells [3]; with 10 γ/ml): 23.3%; MIC (S. aureus Smith): 0.78 µg/mL (≈ 0.66 µM); MIC (K. pnuemoniae PCI 602): 50 µg/mL (≈ 42.3 µM); MIC (B. cereus ATCC 10702): 0.39 µg/mL (≈ 0.33 µM); MIC (S. aureus MS8710): 0.39 µg/mL (≈ 0.33 µM) |
| CCC1(O)CC(OC2CC(N(C)C)C(OC3CC4OC5CC(=O)C(C)OC5OC4C(C)O3)C(C)O2)c2c(O)c3c(c(O)c2C1OC1CC(N(C)C)C(OC2CCC(OC4C=CC(=O)C(C)O4)C(C)O2)C(C)O1)C(=O)c1cccc(O)c1C3=O (stereo not drawn) [Ditrisarubicin C] | 142 | 182 | 142 | 148 | 114 | 0.014 (≈ 0.012 µM) | 0.0007 (≈ 0.000601 µM) | soluble | sparingly soluble | 0.14 (≈ 0.12 µM) | > 50 | 0.39 (≈ 0.335 µM) | < 0.2 | < 0.2 | < 0.2 | 25 (≈ 21.5 µM) | 50 (≈ 42.9 µM) | 50 (≈ 42.9 µM) | < 0.2 | > 50 | IC50 (L1210 cells [3]): 3.2 µg/mL (≈ 2.75 µM); MIC (S. aureus Smith): 0.39 µg/mL (≈ 0.335 µM); MIC (K. pnuemoniae PCI 602): > 50 µg/mL; MIC (B. cereus ATCC 10702): 0.39 µg/mL (≈ 0.335 µM); MIC (S. aureus MS8710): < 0.2 µg/mL |
